# From patent publication US20250043299A1, “POINT MUTATIONS THAT BOOST AROMATIC AMINO ACID PRODUCTION AND CO2 ASSIMILATION IN PLANTS” (Wisconsin Alumni Research Foundation, priority 2021, published 2025)
# Where two headings read alike, the source gives them in different places.
# Tests used:
# [1] = molecular target: T1, DHS1^WT (Arabidopsis thaliana, UniProt P29976); assay: DHS enzyme assay (colorimetric), recombinant DHS1^WT; type: biochemical
# T1 construct: without the predicted plastid transit peptide (amino acid residues; 49-525, 34-507, and 52-527, respectively); made in house; host or cells: E. coli Rosetta-2
# T1 sequence (P29976 49-525): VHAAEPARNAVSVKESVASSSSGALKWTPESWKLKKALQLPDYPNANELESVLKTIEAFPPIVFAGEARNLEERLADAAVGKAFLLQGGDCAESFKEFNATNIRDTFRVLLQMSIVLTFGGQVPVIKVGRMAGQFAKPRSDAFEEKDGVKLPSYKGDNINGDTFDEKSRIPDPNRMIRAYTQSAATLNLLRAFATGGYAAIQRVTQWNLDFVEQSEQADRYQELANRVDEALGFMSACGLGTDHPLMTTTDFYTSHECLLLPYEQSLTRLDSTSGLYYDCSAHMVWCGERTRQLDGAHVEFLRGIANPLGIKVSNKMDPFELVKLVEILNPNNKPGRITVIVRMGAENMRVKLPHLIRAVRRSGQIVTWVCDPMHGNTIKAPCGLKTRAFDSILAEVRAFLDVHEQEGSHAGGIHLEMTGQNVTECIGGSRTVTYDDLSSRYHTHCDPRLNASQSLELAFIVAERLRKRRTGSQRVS
# Experimental: (§1) To generate recombinant DHS proteins the pET28a vectors carrying the A. thaliana DHS1 (AtDHS1), AtDHS2, or AtDHS3 WT sequence without the predicted plastid transit peptide (amino acid residues; 49-525, 34-507, and 52-527, respectively) were expressed in E. coli Rosetta-2 cells and purified using Ni-affinity chromatography, exactly as was conducted previously (9). To generate DHS proteins with individual sota mutations via site-directed mutagenesis, these pET28a plasmid templates were diluted by 500-fold, mixed with 0.04 U/μL Phusion DNA polymerase (Thermo Scientific), 0.2 mM deoxynucleoside triphosphates (dNTPs), 1× Phusion reaction buffer (Thermo Scientific), and 0.5 μM forward and reverse mutagenesis primers (Table 10). The PCR reaction was run using the following protocol: 98° C. for 30 s followed by 20 cycles of 10 s at 98° C., 20 s at 70° C., 4.5 min at 72° C. with a final extension at 72° C. for 10 min. The PCR products were purified using a QIAquick Gel Extraction Kit (QIAGEN), treated with FastDigest DpnI (Thermo Scientific) to digest methylated plasmid template DNA for 20 min at 37° C., and transformed into E. coli cells. The mutagenized pET28a plasmids were sequenced to confirm that no errors were introduced during the mutagenesis process.
# (§2) The DHS enzyme assays were conducted using the colorimetric method that we recently described (9). Briefly, the enzyme solution (7.7 μl) containing 50 mM Hepes (pH 7.4) was preincubated with an effector molecule(s) at room temperature for 15 min. For assays using recombinant protein and enzyme fractions isolated from plant leaves, 0.01 to 0.1 μg and approximately 50 μg of proteins were used, respectively. After adding 0.5 μl of 0.1 M dithiothreitol, the samples were further incubated at room temperature for 15 min. During these incubations, the substrate solution containing 50 mM Hepes (pH 7.4), 2 mM MnCl2, 4 mM E4P, and 4 mM PEP at final concentration was preheated at 37° C. The enzyme reaction was started by adding 6.8 μl of the substrate solution, then incubated at 37° C. for 30 min, and terminated by adding 30 μl of 0.6 M trichloroacetic acid. After a brief centrifugation, 5 μl of 200 mM NaIO4 (sodium meta-periodate) in 9 N H3PO4 was added to oxidize the enzymatic product and to incubate at 25° C. for 20 min. To stop the oxidation reaction, 20 μl of 0.75 M NaAsO2 (sodium arsenite), which was dissolved in 0.5 M Na2SO4 and 0.05 M H2SO4, was added and immediately mixed. After 5 min of incubation at room temperature, one-third of the sample solution was transferred to a new tube to be mixed with 50 μl of 40 mM thiobarbituric acid and incubated at 99° C. for 15 min in a thermal cycler. The mixture was added to 600 μl of cyclohexanone in eight-strip solvent-resistant plastic tubes, mixed vigorously, and centrifuged at 4500 g for 3 min to separate water- and cyclohexanone-based layers for the extraction off the developed pink chromophore. The absorbance of the pink supernatant was read at 549 nm with the microplate reader (Infinite 200 PRO, TECAN) to calculate DAHP production with the molar extinction coefficient at 549 nm (ε=549 nm) of 4.5×10^4 M^−1 cm^−1. Reaction mixtures with boiled enzymes were run in parallel and used as negative controls to estimate the background signal.
# [2] = molecular target: T2, DHS2^WT (Arabidopsis thaliana, UniProt Q00218); assay: DHS enzyme assay, recombinant DHS2^WT; type: biochemical; settings: FIG. 2D
# T2 construct: without the predicted plastid transit peptide (amino acid residues; 49-525, 34-507, and 52-527, respectively); made in house; host or cells: E. coli Rosetta-2
# T2 sequence (Q00218 34-507): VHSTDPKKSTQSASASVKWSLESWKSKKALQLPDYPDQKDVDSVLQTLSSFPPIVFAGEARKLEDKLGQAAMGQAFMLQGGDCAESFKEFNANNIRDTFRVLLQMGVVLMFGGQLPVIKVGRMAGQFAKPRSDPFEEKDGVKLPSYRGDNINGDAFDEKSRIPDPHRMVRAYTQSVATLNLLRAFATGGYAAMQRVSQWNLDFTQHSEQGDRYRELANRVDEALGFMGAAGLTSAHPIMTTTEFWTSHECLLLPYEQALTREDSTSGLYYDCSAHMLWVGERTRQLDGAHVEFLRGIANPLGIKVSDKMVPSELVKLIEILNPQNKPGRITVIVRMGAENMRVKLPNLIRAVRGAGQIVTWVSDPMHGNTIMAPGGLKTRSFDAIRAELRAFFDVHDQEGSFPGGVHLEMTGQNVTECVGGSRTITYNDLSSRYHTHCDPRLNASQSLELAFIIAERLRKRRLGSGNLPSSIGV
# Experimental: as §1, §2
# [3] = molecular target: T3, Arabidopsis thaliana DHS1 (SEQ ID NO:1) variant DHS1^B4 (sotaB4), G244R (Arabidopsis thaliana, UniProt P29976, G244R); assay: DHS enzyme assay with effector, DHS1 sotaB4; type: biochemical
# T3 construct: without the predicted plastid transit peptide (amino acid residues; 49-525, 34-507, and 52-527, respectively); made in house; host or cells: E. coli
# T3 sequence (P29976 49-525 G244R): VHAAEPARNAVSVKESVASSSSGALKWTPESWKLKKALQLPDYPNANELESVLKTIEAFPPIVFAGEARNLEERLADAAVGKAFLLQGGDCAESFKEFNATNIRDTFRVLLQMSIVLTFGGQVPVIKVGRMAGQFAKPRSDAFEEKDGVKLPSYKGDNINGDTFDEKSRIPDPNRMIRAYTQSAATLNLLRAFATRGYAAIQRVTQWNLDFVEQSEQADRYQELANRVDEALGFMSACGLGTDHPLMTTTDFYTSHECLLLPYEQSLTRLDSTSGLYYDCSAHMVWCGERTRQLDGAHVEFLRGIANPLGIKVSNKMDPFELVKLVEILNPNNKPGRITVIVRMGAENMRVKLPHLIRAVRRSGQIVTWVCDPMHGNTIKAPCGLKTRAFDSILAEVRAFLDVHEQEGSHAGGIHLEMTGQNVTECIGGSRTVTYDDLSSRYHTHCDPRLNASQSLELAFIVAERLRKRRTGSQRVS
# Experimental: as §1, §2
# [4] = system: Arabidopsis Col-0 WT plants; assay: Plant growth on media containing ILA or IPA (feeding); type: in vivo, Arabidopsis thaliana; settings: IPA <10 μM; ILA 0-1000 μM in media
# Description: (A) A structural model of A. thaliana DHS2 (AtDHS2, purple) generated from the P. aeruginosa DHS (PaDHS, white) with Trp (magenta) bound. Residues corresponding to the sota mutations mapped onto the AtDHS2 model are highlighted in yellow. (B) Selected regions of the amino acid sequence alignment of PaDHS and AtDHS enzymes, with the positions of the sota mutations indicated by blue, red, green arrows for AtDHS1, AtDHS2, and AtDHS3, respectively. […] Data are means±SEM (n=3). (D) Screening of AAAs and AAA-derived metabolites as potential inhibitors of DHS1^WT and DHS2^WT. *P≤0.05, **P≤0.01, ***P≤0.001, and ****P≤0.0001 denote significant differences by one-way ANOVA with Dunnett's test against the corresponding “No effector” samples. Data are means±SEM (n=3). The dotted horizontal lines separate four sets of independent experiments. […] Data are means±SEM (n=3). (G) Plant picture (left) and fresh weight measurement (right) of 3-week-old Col-0, sotaB4, and sotaA4 mutants (Col-0 background) on the media containing ILA at 0, 250, 500, or 1000 μM. *P≤0.05 and **P≤0.01 denote significant differences by one-way ANOVA with Dunnett's test against the corresponding Col-0 samples (n=12 to 16 independent plant samples). […]
# [5] = system: plant DHSs; settings: prior reports (9); cited from earlier work
# [6] = molecular target: T4, Arabidopsis thaliana DHS2 (SEQ ID NO:2) variant DHS2^A4 (sotaA4), G222S (Arabidopsis thaliana, UniProt Q00218, G222S); assay: biochemical; type: biochemical
# T4 construct: without the predicted plastid transit peptide (amino acid residues; 49-525, 34-507, and 52-527, respectively); made in house; host or cells: E. coli
# T4 sequence (Q00218 34-507 G222S): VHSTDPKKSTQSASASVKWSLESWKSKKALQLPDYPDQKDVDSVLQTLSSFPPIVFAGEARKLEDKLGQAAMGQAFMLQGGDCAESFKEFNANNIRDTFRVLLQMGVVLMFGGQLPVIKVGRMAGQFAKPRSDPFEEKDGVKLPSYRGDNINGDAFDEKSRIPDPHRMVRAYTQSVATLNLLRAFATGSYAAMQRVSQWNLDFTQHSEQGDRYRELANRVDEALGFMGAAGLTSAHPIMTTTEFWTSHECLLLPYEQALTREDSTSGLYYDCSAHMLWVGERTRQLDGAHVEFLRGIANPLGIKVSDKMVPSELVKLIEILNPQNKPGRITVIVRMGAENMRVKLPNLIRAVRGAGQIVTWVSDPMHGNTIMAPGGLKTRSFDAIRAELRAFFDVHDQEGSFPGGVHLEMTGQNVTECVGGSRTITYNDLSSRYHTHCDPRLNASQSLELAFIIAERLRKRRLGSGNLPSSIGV
# Experimental: as §1, §2
# [7] = molecular target: T5, Arabidopsis thaliana DHS2 (AtDHS2), wild type (DHS2^WT), SEQ ID NO:2 (Arabidopsis thaliana, UniProt Q00218); settings: DHS2^WT; values for AAAs, chorismate, caffeate from Yokoyama et al., Plant Cell, 2021; cited from earlier work
# T5 construct: without the predicted plastid transit peptide (amino acid residues; 49-525, 34-507, and 52-527, respectively); made in house; host or cells: E. coli Rosetta-2
# T5 sequence (Q00218 34-507): as the sequence (Q00218 34-507) above
# [8] = molecular target: T6, DHS2^A4 (Arabidopsis thaliana, UniProt Q00218, G222S); type: biochemical
# T6 construct: without the predicted plastid transit peptide (amino acid residues; 49-525, 34-507, and 52-527, respectively); made in house; host or cells: E. coli
# T6 sequence (Q00218 34-507 G222S): as the sequence (Q00218 34-507 G222S) above
# Experimental: as §1, §2
# [9] = molecular target: T7, Arabidopsis thaliana DHS1 (AtDHS1), wild type (DHS1^WT), SEQ ID NO:1 (Arabidopsis thaliana, UniProt P29976); settings: values for AAAs, chorismate, caffeate from Yokoyama et al., Plant Cell, 2021; cited from earlier work
# T7 construct: without the predicted plastid transit peptide (amino acid residues; 49-525, 34-507, and 52-527, respectively); made in house; host or cells: E. coli Rosetta-2
# T7 sequence (P29976 49-525): as the sequence (P29976 49-525) above
# [10] = system: Arabidopsis thaliana DHS^WT isoforms (DHS1, DHS2, DHS3), SEQ ID NO:1-3; settings: reference 9; cited from earlier work
# [11] = molecular target: T8, DHS1^B4 (Arabidopsis thaliana, UniProt P29976, G244R); assay: DHS enzyme assay, recombinant DHS1^B4; type: biochemical
# T8 construct: without the predicted plastid transit peptide (amino acid residues; 49-525, 34-507, and 52-527, respectively); made in house; host or cells: E. coli
# T8 sequence (P29976 49-525 G244R): as the sequence (P29976 49-525 G244R) above
# Experimental: as §1, §2
# [12] = system: Nicotiana benthamiana leaves; assay: Transient expression of Arabidopsis DHS1 WT and B4 in Nicotiana benthamiana, AAA levels by LC-MS; type: in vivo; settings: two days after inoculation
# Experimental: Vectors for plant expression were made as previously described using MoClo modular cloning technology. For transient expression in Nicotiana benthamiana, gene expression of the protein coding sequence (CDS) of DHS1 WT and B4 were driven by a 1987-bp sequence obtained from the upstream region of the ubiquitin 10 gene (At4g05320) from Arabidopsis. In addition, a synthetic hemagglutinin (HA) tag comprising 6 repeats of the sequence […] (SEQ ID NO:75) was added to the C-terminus of the protein for quantification of protein expression using an anti-HA antibody. Vectors containing the promoter, CDS, epitope HA-tag, and a terminator were transformed into Agrobacterium tumefaciens via electroporation.
# Positive transformants were used to perform transient expression in Nicotiana benthamiana. Single colony bacteria were grown in LB media supplemented with kanamycin (100 mg/L) and gentamycin (100 mg/L) at 28° C. with constant agitation at 200 rpm. […] After complete resuspension, bacteria concentration was evaluated by spectrometry using optical density (OD) at 600 nm. […]
# Each inoculated leaf was separated into 4 quadrants, and each quadrant received a different bacteria solution containing a different vector. […] Samples for metabolite analysis were collected two days after inoculation and processed as previously described for quantification of aromatic amino acids.
compound,measurement,setting,value
"O=C(O)C(O)Cc1c[nH]c2ccccc12 (stereo not drawn) [ILA, Indole-3-lactate]",effect on DHS1 activity (effector screening),[1]; FIG. 2D,reduced the activity
same,IC50,"[1]; recombinant enzyme, read-out: IC50 of effector molecule on DHS1^WT",210 µM
same,effect on DHS2 activity (effector screening),[2],reduced the activity
same,IC50,"[3]; DHS1^B4, 4 mM E4P, 4 mM PEP, pH 7.4, 37° C.",2880 µM
same,effect of feeding on plant growth,[4],growth inhibition
"O=C[C@H](O)[C@H](O)COP(=O)(O)O [E4P, erythrose-4-phosphate]",Km for E4P,[5],high
C=C(O[C@@H]1C=C(C(=O)O)C=C[C@H]1O)C(=O)O [Chorismate],IC50,[6],101 µM
same,inhibition of DHS2^A4,"[6]; up to 1 mM Tyr, Trp (FIG. 2C), shikimate, arogenate, prephenate at 1 mM (FIG. 21A)",still inhibited
same,IC50,[7],81 µM
same,inhibition of DHS2^A4 activity,[8]; effector up to 1 mM,still inhibited
same,IC50,"[8]; recombinant enzyme, read-out: IC50 of effector molecule on DHS2^A4",102 µM
same,IC50,[9],14.6 µM
same,IC50,[3],25.3 µM
same,inhibition of DHS1^B4,[3]; FIG. 19,still strongly inhibited
same,inhibition of all Arabidopsis DHS isoforms,[10],strongly inhibit all Arabidopsis DHS isoforms
same,inhibition of DHS1^B4 activity,[11],still strongly inhibited
same,IC50,"[11]; recombinant enzyme, read-out: IC50 of effector molecule on DHS1^B4",25.3 µM
Arabidopsis DHS1 sotaB4 mutant: Arabidopsis DHS1 enzyme with the sotaB4 mutation (G244R),production of tyrosine and phenylalanine in the tobacco plant,[12],significantly elevated production
